According to patent US5527773A, “Use of synthetic peptides to disrupt the cytoskeleton” (United States of America, priority 1993, dated 1996):

Experiments:
preformed keratin IFs = test: Disassembly of preformed keratin IFs by synthetic peptides (light scattering, electron microscopy); type: biochemical, human
Procedure: In vitro filament assembly assays (1-1.5 mg/ml) were performed by dialysis for 2 hours each into decreasing concentrations of urea (6, 4, 2, 1 and 0M) containing 5 mM Tris-HCl, pH 7.6, 1 mM EDTA, 1 mM dithiothreitol. […]. Light scattering was measured at 310 nm in a Beckman DU65 spectrophotometer. Synthetic peptides (1-30 μl of a 0.5-2 mg/ml solution) were added to 1 ml samples of keratin filaments, incubated at 37° C., and filament assembly was measured by light scattering. […] Samples of these reactions were also collected for visualization by electron microscopy and stopped by negative staining with freshly-prepared 0.7% uranyl acetate.
Peptides corresponding to the H1, beginning of 1A, and full-length 1A regions (SEQ ID NO: 1-3) of the human keratin 1 chain were individually mixed with preformed keratin IFs in vitro at a 1:1 molar ratio.

[1] = Solubility of the peptide; type: physicochemical
Procedure: (§1) Microinjected cells were prepared for indirect immunofluorescence and confocal microscopy as described (Yang et al., (1985) J. Cell Biol., 100: 620-631). IF disassembly was assessed by immunofluorescence using antibodies against IFs. […] At 1 mg/ml peptide, cells rounded up completely within 30 min, respreading and regaining their shape after a few hours. […] The rounded-up cells contained spots of fluorescence indicating a rather complete disruption of IF structure. Recovery occurred within 3-4 hours indicating a need to maintain a constant supply of peptide to maintain the disassembled state of the IF network. The 1A peptide was soluble at 5-10 mg/ml, although higher concentrations may also be obtainable.

[2] = system: keratin and vimentin/desmin IF networks in PtK2, BHK21 and mouse 3T3 fibroblasts; test: Microinjection of the 1A peptide into cells, indirect immunofluorescence and confocal microscopy; type: cell-based, kangaroo rat, baby hamster
Procedure: The synthetic peptide corresponding to the keratin 1 chain 1A region (SEQ ID NO: 2) was microinjected into PtK2, BHK21 and mouse 3T3 fibroblasts according to the procedure of Vikstrom et al. (Proc. Natl. Acad. Sci. U.S.A., (1989) 86: 549-553; Methods Enzymol., (1991) 176: 506-525). BHK-21 cells contain type III filaments composed of vimentin and desmin, while 3T3 cells contain only vimentin. PtK2 cells contain mainly keratin. Briefly, peptides in 20 mM Tris-HCl. pH 8.5, 0.17M NaCl, 3 mM KCl were clarified by centrifugation for 30 min at 100,000×g immediately prior to microinjection. Protein concentrations in samples were determined by the method of Bradford (Anal. Biochem., 72: 248-254 (1976)). Micropipettes (W-P instruments) were prepared on a micropipette puller (Industrial Science Associates). Microinjections were monitored with a Leitz Diavert phase-contrast microscope fitted with a Leitz micromanipulator according to standard techniques (Graessmann and Graessmann, (1976) Proc. Natl. Acad. Sci. U.S.A., 73: 366-370; Kreis and Birchmeier, (1982) Int. Rev. Cytol., 75: 209-227).
as §1

In the case of “1A*: the first 18 amino acids of SEQ ID NO: 2 (1A peptide) (REQIKSLNNQFASFIDKV)”, the reversibility of disassembly (preformed keratin IFs; 1:1 molar ratio) is reported as “reversible upon removal of the peptide”, the “time to disassembly of preformed IFs down to single coiled-coil molecules” value (preformed keratin IFs; 1:1 molar ratio peptide to preformed keratin IFs, light scattering and electron microscopy) is reported as ≤ 30 min and the solubility [1] is reported as 5000 to 10000 µg/mL. The “IF structure by immunofluorescence during rounding” value ([2]; 1 mg/ml peptide) was “disorganized arrays of IFs”, the “time to complete rounding up of cells” value ([2]; 1 mg/ml peptide) was ≤ 30 min and the “alteration of IF networks” value ([2]; 2-5 mg/ml peptide) was “very significant alterations in both the keratin and vimentin/desmin IF networks”. For the same substance, the time to recovery ([2]; 2-5 mg/ml peptide) was 3 to 4 h, the overall cell shape ([2]; about 0.5 mg/ml peptide microinjected, after 15-20 min) was “altered slightly due to the partial rounding up” and the “overall IF structure by immunofluorescence” value ([2]; about 0.5 mg/ml peptide, 30 min post-injection) was “no significant changes in overall IF structure”.
